The source of these data is patent US6593335B1, “Potassium channel openers” (Abbott Laboratories, priority 1997, dated 2003).

One test concerns the target potassium channels (Sus scrofa, UniProt F1SR11). As to the kind of experiment: Functional potassium channel opening activity in isolated Landrace pig bladder strips (field-stimulated twitch). Put shortly: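 Landrace pig bladder strips with the mucosa removed were field-stimulated (0.05 Hz, 0.5 ms, 20 V) in Krebs Ringer bicarbonate containing propranolol, and primed with 80 mM KCl. Cumulative concentration-response curves gave maximal efficacy relative to a reference potassium channel opener, pD2, and a potency index (reference ED50/test ED50) averaged across tissues.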

For another test, the system named is Male CD rats. Description: In-vivo bladder efficacy protocol (isovolumetric contractions model). Further details: species or system rat. The source says: The utility of compounds of the inyention for the treatment of urinary incontinence, bladder overactivity and bladder instability is illustrated by the ability of compounds of the inyention to affect bladder contractions in-vivo. The following method is illustrative of the in-vivo bladder efficacy of compounds of the inyention. In-vivo bladder efficacy protocol (isovolumetric contractions model) Male CD rats (400-450 g) were anesthetized with urethane (0.6 gikg ip +0.6 g/kg sc). The left femoral vein was cannulated with polyethylene (PE-50) tubing for test compound administration. […] The bladder was emptied via this catheter and additionally by applying slight manual pressure on the lower abdomen. The urinary catheter was connected using a Y-tube connector to both a pressure transducer and a syringe pump. The urethra was then ligated using 4-0 silk suture and the bladder was slowly filled using a constant infusion of room temperature saline at the rate of 0.1 ml/min until spontaneous rhythmic contractions were evident (1.0 -1.3 ml). […] Then three doses of a test compound were administered cumulatively iv at 20 minute intervals. […] Area under the curve (AUC) of the bladder contractions was determined from the respective waveforms using a Modular Instruments, Inc. computerized data acquisition system and averaged over the last ten minutes of each twenty minute period.

For the molecule `O=C1CCC2=C1C(c1ccc(F)c(Br)c1)C1=C(CCS1(=O)=O)N2` (single isomer, unassigned; (+)) [Example 87], the “Landrace Pig Bladder Index” value on potassium channels (ED50 for P1075 divided by ED50 for the test agonist, averaged over tissues) is recorded as 0.90. The “Landrace Pig Bladder Efficacy (% P1075)” value on potassium channels (maximal efficacy relative to P1075, field stimulation 0.05Hz, 0.5 milli-seconds at 20 volts) was found to be 100 % P1075. The “Landrace Pig Bladder pD2” value at potassium channels (negative logarithm of ED50) came to 7.5. Further, in the test with Male CD rats (iv, dose range of 0.01, 0.1), the “reduction in bladder AUC” value is reported as “dose dependent reduction in bladder AUC”. Also, the AUC ED30 (dose required to reduce the area under the curve of the bladder contractions by 30% relative to control) in the test on Male CD rats (urethane-anesthetized male CD rats, iv cumulative dosing) was 0.06 µmol/kg.
